# What was measured:
# human PPARα = target: T1, human PPARα (Homo sapiens, UniProt Q07869); experiment: PPARα in vitro reporter gene assay (PPRE-luciferase) in L-02 cells; assay type: cell-based; conditions: 24 h after compound addition, luciferase corrected by GFP, read-out: EC50 (semi-activating activity) activating PPARα
# T1 construct: expressed in transfected cells; host or cells: L-02
# T1 sequence (Q07869 1-468): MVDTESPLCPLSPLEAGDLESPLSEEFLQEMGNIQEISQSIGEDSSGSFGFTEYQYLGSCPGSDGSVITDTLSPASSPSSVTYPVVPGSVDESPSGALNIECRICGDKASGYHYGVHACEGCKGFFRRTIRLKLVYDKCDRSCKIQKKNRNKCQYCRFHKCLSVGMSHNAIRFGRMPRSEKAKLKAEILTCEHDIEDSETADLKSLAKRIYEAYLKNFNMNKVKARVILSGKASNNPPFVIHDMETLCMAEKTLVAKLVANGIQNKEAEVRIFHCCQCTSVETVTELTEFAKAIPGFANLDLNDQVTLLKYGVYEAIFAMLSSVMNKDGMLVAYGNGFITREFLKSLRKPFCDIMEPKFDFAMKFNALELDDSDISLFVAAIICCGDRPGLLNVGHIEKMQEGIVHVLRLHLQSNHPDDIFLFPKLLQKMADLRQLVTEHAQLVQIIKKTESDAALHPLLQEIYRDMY
# Procedure: The PPARα reporter gene detection system comprises a pCDNA3.1 luciferase expression plasmid (PPRE enhancer element was inserted into the upstream of the promoter), a green fluorescent protein GFP expression plasmid, and a human PPARα expression plasmid.
# (§1) The above plasmids were co-transfected (Fugene 6.0 transfection reagent) into human hepatoma cell line L-02. 48 hours after transfection, different concentrations of test compounds were added. 24 hours after administration, the cells were treated with a luciferase assay kit (Promega E1910) and the fluorescence intensity of GFP (wavelength 485-527 nm) and luciferase substrate (wavelength 562 nm) were detected using a fluorescence detector (Fluoroskan Ascent FL) respectively. The GFP signal was used as an internal reference to correct the detected luciferase substrate signal, and a relative reporter activation intensity was obtained by comparing the above corrected signal to the blank control (without treatment of the compounds). The semi-activating activity (EC50) of the test compound was calculated from concentration gradient data.
# db/db mice [1] = experiment: Fasting blood glucose in db/db mice during 14 days of oral administration; assay type: in vivo, mouse; conditions: oral once a day, enantiomers 20 mg/kg, rosiglitazone 5 mg/kg, 6 h fasting; for Fasting blood glucose, average value, Day 0: Day 0, n = 10; for Fasting blood glucose, average value, Day 3: Day 3, n = 10; for Fasting blood glucose, average value, Day 6: Day 6, n = 10; for Fasting blood glucose, average value, Day 9: Day 9, n = 10; for Fasting blood glucose, average value, Day 12: Day 12, n = 10; for Fasting blood glucose, average value, Day 14: Day 14, n = 10
# Procedure: (§2) The route of administration was oral, the dose was 20 mg/kg in the administration group and 5 mg/kg in the control group, the frequency of administration was once a day, and the administration period was 14 days. […] On days 0, 3, 6, 9, 12, and 14, after fasting for 6 hours after administration, blood was collected from the tail vein and fasting blood glucose levels was measured by a blood glucose meter and recorded.
# [2] = target: T2, RXR/PPAR-6 heterodimer (PPARδ) (Homo sapiens, UniProt Q03181); experiment: PPARδ in vitro reporter gene assay (pGL3-PPRE reporter, PPARδ and RXR plasmids) in L-02 cells; assay type: cell-based; conditions: 24 h after compound addition, luciferase corrected by GFP, read-out: EC50 (semi-activating activity) activating PPAR-6
# T2 construct: expressed in transfected cells; host or cells: L-02
# T2 sequence (Q03181 1-441): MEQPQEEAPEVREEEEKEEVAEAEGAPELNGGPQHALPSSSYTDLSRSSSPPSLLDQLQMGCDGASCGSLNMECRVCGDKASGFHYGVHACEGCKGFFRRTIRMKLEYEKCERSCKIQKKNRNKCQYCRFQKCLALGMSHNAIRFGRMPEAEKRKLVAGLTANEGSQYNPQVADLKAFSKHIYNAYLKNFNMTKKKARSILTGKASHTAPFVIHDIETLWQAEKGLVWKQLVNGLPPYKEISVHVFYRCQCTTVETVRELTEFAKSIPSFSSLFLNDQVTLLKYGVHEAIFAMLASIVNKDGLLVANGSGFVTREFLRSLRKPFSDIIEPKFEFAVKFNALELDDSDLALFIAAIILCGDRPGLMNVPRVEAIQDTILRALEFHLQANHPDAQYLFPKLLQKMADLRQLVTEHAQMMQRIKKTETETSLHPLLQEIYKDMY
# T2 sequence (P19793 1-462 partner): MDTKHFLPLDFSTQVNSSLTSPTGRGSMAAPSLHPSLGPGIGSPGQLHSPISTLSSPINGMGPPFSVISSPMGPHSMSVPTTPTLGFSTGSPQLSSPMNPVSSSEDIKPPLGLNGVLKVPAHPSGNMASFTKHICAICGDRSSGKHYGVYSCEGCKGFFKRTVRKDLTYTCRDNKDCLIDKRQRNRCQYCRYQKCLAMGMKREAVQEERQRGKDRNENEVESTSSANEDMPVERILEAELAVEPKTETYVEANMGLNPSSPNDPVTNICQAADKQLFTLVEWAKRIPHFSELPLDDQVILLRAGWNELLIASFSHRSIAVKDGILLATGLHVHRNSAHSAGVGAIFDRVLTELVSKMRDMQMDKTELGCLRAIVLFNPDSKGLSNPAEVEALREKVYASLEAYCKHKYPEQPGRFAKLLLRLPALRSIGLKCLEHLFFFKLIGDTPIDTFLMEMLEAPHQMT
# Procedure: The PPARδ reporter gene detection system comprises a pGL3-PPRE fluorescent reporter gene plasmid (PPRE enhancer element was inserted into the upstream of the promoter), PPARδ expression plasmid, RXR expression plasmid, and a green fluorescent protein GFP expression plasmid.
# as §1, with “Ascent FL),” for “Ascent FL)”, “signal is” for “signal was”
# RXR/PPARγ heterodimer = target: T3, RXR/PPARγ heterodimer (Homo sapiens, UniProt P37231); experiment: PPARγ in vitro reporter gene assay (pACOX reporter, PPARγ and RXR plasmids) in L-02 cells; assay type: cell-based; conditions: 24 h after compound addition, luciferase corrected by GFP, read-out: EC50 (semi-activating activity) activating PPARγ
# T3 construct: expressed in transfected cells; host or cells: L-02
# T3 sequence (P37231 1-505): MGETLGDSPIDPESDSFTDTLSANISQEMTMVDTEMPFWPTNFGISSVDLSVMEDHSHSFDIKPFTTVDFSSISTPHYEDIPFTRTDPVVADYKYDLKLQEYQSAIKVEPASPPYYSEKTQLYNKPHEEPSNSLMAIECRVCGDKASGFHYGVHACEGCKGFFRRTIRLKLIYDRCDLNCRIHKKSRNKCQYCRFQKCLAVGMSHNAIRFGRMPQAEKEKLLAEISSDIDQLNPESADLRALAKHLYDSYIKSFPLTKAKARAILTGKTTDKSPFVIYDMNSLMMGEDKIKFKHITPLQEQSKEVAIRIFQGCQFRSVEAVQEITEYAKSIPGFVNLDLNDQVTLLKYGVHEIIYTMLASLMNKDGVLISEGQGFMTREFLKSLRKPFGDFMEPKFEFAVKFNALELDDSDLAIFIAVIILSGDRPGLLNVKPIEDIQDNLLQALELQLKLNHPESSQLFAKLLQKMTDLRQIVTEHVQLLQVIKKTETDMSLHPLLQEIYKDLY
# T3 sequence (P19793 1-462 partner): T2 sequence (P19793 1-462 partner)
# Procedure: The PPARγ reporter gene detection system comprises a pACOX fluorescent reporter gene plasmid (the promoter comprises PPRE sequence), PPARγ expression plasmid, RXR expression plasmid, and a green fluorescent protein GFP expression plasmid.
# as §1, with “FL),” for “FL)”
# db/db mice [3] = experiment: Glucose tolerance test (OTGG) in db/db mice after 14 days of administration; assay type: in vivo, mouse; conditions: n = 10; for Blood glucose in glucose tolerance test, average value, 15 min: 15 min after oral 2 g/kg glucose; for Blood glucose in glucose tolerance test, average value, 30 min: 30 min after oral 2 g/kg glucose; for Blood glucose in glucose tolerance test, average value, 60 min: 60 min after oral 2 g/kg glucose; for Blood glucose in glucose tolerance test, average value, 120 min: 120 min after oral 2 g/kg glucose; for Glucose tolerance test AUC, average value: oral 2 g/kg glucose, 0-120 min; for Blood glucose in glucose tolerance test, average value, 0 min: overnight fast, before oral 2 g/kg glucose (0 min)
# Procedure: as §2
# After 14 days of administration, the animals were fasted overnight (<10 hours), and orally given 2 g/kg of glucose on the next day. Blood was collected from the tail vein at the 0 (pre-administration or fasting blood glucose level), 15, 30, 60 and 120 minutes after administration, respectively, and blood glucose levels were then measured by blood glucose meter and recorded.
SMILES,EC50 (human PPARα) [nM],"Fasting blood glucose, average value, Day 0 (db/db mice [1])","Fasting blood glucose, average value, Day 3 (db/db mice [1])","Fasting blood glucose, average value, Day 6 (db/db mice [1])","Fasting blood glucose, average value, Day 9 (db/db mice [1])","Fasting blood glucose, average value, Day 12 (db/db mice [1])","Fasting blood glucose, average value, Day 14 (db/db mice [1])",EC50 [2] [nM],EC50 (RXR/PPARγ heterodimer) [nM],"Blood glucose in glucose tolerance test, average value, 15 min (db/db mice [3])","Blood glucose in glucose tolerance test, average value, 30 min (db/db mice [3])","Blood glucose in glucose tolerance test, average value, 60 min (db/db mice [3])","Blood glucose in glucose tolerance test, average value, 120 min (db/db mice [3])","Glucose tolerance test AUC, average value (db/db mice [3])","Blood glucose in glucose tolerance test, average value, 0 min (db/db mice [3])"
"O=C(c1ccc(F)cc1)c1ccccc1NC(Cc1ccc(OCCn2c3ccccc3c3ccccc32)cc1)C(=O)O (single isomer, unassigned; (-)) [Enantiomer 1, (−)-2-[(2-(4-fluorobenzoyl)phenyl)amino]-3-[(4-(2-carbazole-ethoxy)phenyl)]propionic acid]",1140,18.43,18.2,14.7,18.14,16.18,10.98,1930,76,28.02,32.26,26.6,14.69,47.77,10.98
"CN(CCOc1ccc(CC2SC(=O)NC2=O)cc1)c1ccccn1 (centres unmarked) [rosiglitazone, reference compound]",,19.09,13.58,13.8,15.05,14.44,11.29,,,28.11,31.22,25.08,13.61,,11.29
"O=C(c1ccc(F)cc1)c1ccccc1NC(Cc1ccc(OCCn2c3ccccc3c3ccccc32)cc1)C(=O)O (single isomer, unassigned; (+)) [Enantiomer 2, (+)-2-[(2-(4-fluorobenzoyl)phenyl)amino]-3-[(4-(2-carbazole-ethoxy)phenyl)]propionic acid]",5380,18.86,23.99,20.03,26.01,26.44,17.18,> 10000,2710,31.87,33.3,30.94,25.75,59.16,17.18

# Reference: patent US20200031771A1, “SUBSTITUTED PHENYLPROPIONIC ACID ENANTIOMER AND MANUFACTURING METHOD, COMPOSITION, AND APPLICATION OF SAME” (SHENZHEN CHIPSCREEN BIOSCIENCES CO., LTD., priority 2016, published 2020)
